Test results published in the NIST ThermoML archive (doi:10.1021/je900596d).

Settings: for mass density: Vibrating tube method

FC(F)=C(F)C(F)(F)F [hexafluoropropene]
Settings	mass density [kg/m3]	vapor or sublimation pressure [kPa]
348.16 K, 3450.8 kPa, Liquid	1027.09	–
348.16 K, 3473.5 kPa, Liquid	1028.21	–
348.16 K, 3495.4 kPa, Liquid	1029.31	–
348.16 K, 3556 kPa, Liquid	1032.19	–
348.16 K, 3620.1 kPa, Liquid	1035.16	–
348.16 K, 3683.5 kPa, Liquid	1037.98	–
348.16 K, 3748.1 kPa, Liquid	1040.81	–
348.16 K, 3811.8 kPa, Liquid	1043.57	–
348.16 K, 3875.5 kPa, Liquid	1046.1	–
348.16 K, 4030.8 kPa, Liquid	1052.17	–
348.16 K, 4092 kPa, Liquid	1054.62	–
348.16 K, 4154 kPa, Liquid	1057.08	–
348.16 K, 4217.2 kPa, Liquid	1059.37	–
348.16 K, 4278.7 kPa, Liquid	1061.59	–
348.16 K, 4339.9 kPa, Liquid	1063.83	–
348.16 K, 4402.1 kPa, Liquid	1065.77	–
348.16 K, 4464.2 kPa, Liquid	1067.89	–
348.16 K, 4526 kPa, Liquid	1070.05	–
348.16 K, 4587.8 kPa, Liquid	1072.01	–
348.16 K, 4650.2 kPa, Liquid	1074.03	–
348.16 K, 4713.9 kPa, Liquid	1075.88	–
348.16 K, 4776 kPa, Liquid	1077.88	–
348.16 K, 4837.4 kPa, Liquid	1079.66	–
348.16 K, 4898.5 kPa, Liquid	1081.71	–
348.16 K, 4959.8 kPa, Liquid	1083.32	–
348.16 K, 5022.6 kPa, Liquid	1085.31	–
348.16 K, 5083.3 kPa, Liquid	1086.88	–
348.16 K, 5144.8 kPa, Liquid	1088.55	–
348.16 K, 5206 kPa, Liquid	1090.21	–
348.16 K, 5267.2 kPa, Liquid	1091.82	–
348.16 K, 5329.1 kPa, Liquid	1093.58	–
348.16 K, 5389.3 kPa, Liquid	1095.16	–
348.16 K, 5451.8 kPa, Liquid	1096.85	–
348.16 K, 5513.3 kPa, Liquid	1098.5	–
348.16 K, 5576.7 kPa, Liquid	1100.15	–
348.16 K, 5638.9 kPa, Liquid	1101.65	–
348.16 K, 5701.8 kPa, Liquid	1103.22	–
348.16 K, 5762.2 kPa, Liquid	1104.69	–
348.16 K, 5825.1 kPa, Liquid	1106.21	–
348.16 K, 5886.9 kPa, Liquid	1107.77	–
348.16 K, 5948.2 kPa, Liquid	1109.1	–
348.16 K, 6012.5 kPa, Liquid	1110.68	–
348.16 K, 6074.1 kPa, Liquid	1112.14	–
348.16 K, 6135.8 kPa, Liquid	1113.56	–
348.16 K, 6199.8 kPa, Liquid	1114.99	–
348.16 K, 6262.2 kPa, Liquid	1116.4	–
348.16 K, 6326.8 kPa, Liquid	1117.78	–
348.16 K, 6392.4 kPa, Liquid	1119.12	–
348.16 K, 6456 kPa, Liquid	1120.57	–
348.16 K, 6517.7 kPa, Liquid	1121.84	–
348.16 K, 6581 kPa, Liquid	1123.2	–
348.16 K, 6643.4 kPa, Liquid	1124.53	–
348.16 K, 6706.3 kPa, Liquid	1125.82	–
348.16 K, 6767.7 kPa, Liquid	1127.07	–
348.16 K, 6830.9 kPa, Liquid	1128.32	–
348.16 K, 6893 kPa, Liquid	1129.63	–
348.16 K, 6955.9 kPa, Liquid	1130.87	–
348.16 K, 7017.5 kPa, Liquid	1132.05	–
348.16 K, 7142.8 kPa, Liquid	1134.61	–
348.16 K, 7205.4 kPa, Liquid	1135.79	–
348.16 K, 7269.5 kPa, Liquid	1136.95	–
348.16 K, 7332.4 kPa, Liquid	1138.09	–
348.16 K, 7396.2 kPa, Liquid	1139.31	–
348.16 K, 7458.5 kPa, Liquid	1140.53	–
348.16 K, 7521.9 kPa, Liquid	1141.64	–
348.16 K, 7584.8 kPa, Liquid	1142.73	–
348.16 K, 7646.8 kPa, Liquid	1143.93	–
348.16 K, 7707.9 kPa, Liquid	1145.12	–
348.16 K, 7771.4 kPa, Liquid	1146.25	–
348.16 K, 7835.4 kPa, Liquid	1147.35	–
348.16 K, 7897.7 kPa, Liquid	1148.36	–
348.16 K, 7961.9 kPa, Liquid	1149.49	–
348.16 K, 8025.7 kPa, Liquid	1150.51	–
348.16 K, 8087.3 kPa, Liquid	1151.69	–
348.16 K, 8149.7 kPa, Liquid	1152.67	–
348.16 K, 8214.5 kPa, Liquid	1153.77	–
348.16 K, 8278.5 kPa, Liquid	1154.85	–
348.16 K, 8341.3 kPa, Liquid	1155.78	–
348.16 K, 8406.3 kPa, Liquid	1157	–
348.16 K, 8469.9 kPa, Liquid	1157.97	–
348.16 K, 8531.4 kPa, Liquid	1158.94	–
348.16 K, 8594.4 kPa, Liquid	1159.97	–
348.16 K, 8659.7 kPa, Liquid	1160.84	–
348.16 K, 8722.7 kPa, Liquid	1161.97	–
348.16 K, 8786.5 kPa, Liquid	1163	–
348.16 K, 8848.4 kPa, Liquid	1163.83	–
348.16 K, 8911.7 kPa, Liquid	1164.85	–
348.16 K, 8974.2 kPa, Liquid	1165.76	–
348.16 K, 9039.8 kPa, Liquid	1166.77	–
348.16 K, 9105.6 kPa, Liquid	1167.83	–
348.16 K, 9170.3 kPa, Liquid	1168.8	–
348.16 K, 9233.7 kPa, Liquid	1169.7	–
348.16 K, 9295.2 kPa, Liquid	1170.74	–
348.16 K, 9362.9 kPa, Liquid	1171.78	–
348.16 K, 9399.4 kPa, Liquid	1172.31	–
348.16 K, 9466.9 kPa, Liquid	1173.32	–
348.16 K, 9534.3 kPa, Liquid	1174.34	–
348.16 K, 9571.4 kPa, Liquid	1174.89	–
348.16 K, 9609.6 kPa, Liquid	1175.39	–
348.16 K, 9656.8 kPa, Liquid	1176.01	–
348.16 K, 9696 kPa, Liquid	1176.45	–
348.16 K, 9739.9 kPa, Liquid	1177.06	–
348.16 K, 9788.9 kPa, Liquid	1175.42	–
348.16 K, 9833.1 kPa, Liquid	1175.9	–
348.16 K, 9877.8 kPa, Liquid	1176.32	–
348.16 K, 9944.3 kPa, Liquid	1179.73	–
348.16 K, 10016 kPa, Liquid	1180.6	–
348.22 K, Liquid, Closed cell (Static) method	–	2500.5
353.12 K, 6.6 kPa, Fluid (supercritical or subcritical phases)	0.343	–
353.12 K, 8.7 kPa, Fluid (supercritical or subcritical phases)	0.497	–
353.12 K, 11.7 kPa, Fluid (supercritical or subcritical phases)	0.619	–
353.12 K, 14.3 kPa, Fluid (supercritical or subcritical phases)	0.737	–
353.12 K, 16.6 kPa, Fluid (supercritical or subcritical phases)	0.793	–
353.12 K, 24.1 kPa, Fluid (supercritical or subcritical phases)	1.232	–
353.12 K, 26.7 kPa, Fluid (supercritical or subcritical phases)	1.395	–
353.12 K, 28.8 kPa, Fluid (supercritical or subcritical phases)	1.442	–
353.12 K, 32.7 kPa, Fluid (supercritical or subcritical phases)	1.694	–
353.12 K, 35.6 kPa, Fluid (supercritical or subcritical phases)	1.827	–
353.12 K, 38.2 kPa, Fluid (supercritical or subcritical phases)	1.904	–
353.12 K, 101.9 kPa, Fluid (supercritical or subcritical phases)	5.291	–
353.12 K, 111.4 kPa, Fluid (supercritical or subcritical phases)	5.735	–
353.12 K, 120.9 kPa, Fluid (supercritical or subcritical phases)	6.245	–
353.12 K, 129.7 kPa, Fluid (supercritical or subcritical phases)	6.695	–
353.12 K, 140.7 kPa, Fluid (supercritical or subcritical phases)	7.318	–
353.12 K, 151.2 kPa, Fluid (supercritical or subcritical phases)	7.845	–
353.12 K, 160.5 kPa, Fluid (supercritical or subcritical phases)	8.339	–
353.12 K, 169.9 kPa, Fluid (supercritical or subcritical phases)	8.914	–
353.12 K, 180.3 kPa, Fluid (supercritical or subcritical phases)	9.389	–
353.12 K, 189.6 kPa, Fluid (supercritical or subcritical phases)	9.904	–
353.12 K, 199 kPa, Fluid (supercritical or subcritical phases)	10.374	–
353.12 K, 209.3 kPa, Fluid (supercritical or subcritical phases)	11.01	–
353.12 K, 220.4 kPa, Fluid (supercritical or subcritical phases)	11.538	–
353.12 K, 230.8 kPa, Fluid (supercritical or subcritical phases)	12.133	–
353.12 K, 242.1 kPa, Fluid (supercritical or subcritical phases)	12.723	–
